Reference: patent publication US10717730B1, “Dihydroisoquinoline compound” (SUZHOU ARK BIOPHARMACEUTICAL CO., LTD., priority 2017, dated 2020)

system: HBsAg; assay: HBsAg assay (secreted HBsAg by CLIA in HepG2.2.15 cells); assay type: cell-based, hepatitis B virus (HBV); details: Hepatitis B virus, HepG2.2.15, 96 h
Procedure: HepG2.2.15 cells (Sells et al, Proc Natl Acad Sci USA. 1987 February; 84(4):1005-9), a constitutively HBV-expressing cell line, were cultured in DMEM medium supplemented with 10% FBS and 400 μg/mL G418, and maintained in 5% CO2 at 37° C.
HepG2.2.15 cells were seeded into 96-well plates at 3×10^4 cells/well. The next day, the cells were treated with a five-fold serial dilution series of the compound in DMSO. The final DMSO concentration in all wells was 0.5% and 0.5% DMSO was used as no drug control. After four days of incubation with compounds, the supernatants were harvested and measured for HBsAg concentration
The HBsAg chemiluminescence immunoassay (CLIA) kit was used to measure the levels of secreted HBsAg. Specifically, 50 μL of culture supernatant was transferred to the CLIA assay plate and 50 μL of enzyme conjugate reagent was added into each well. The plates were sealed and incubated for 1 hour at room temperature. The supernatant-enzyme-mixture was discarded and wells were washed for 6 times. The residual liquid was removed by plating on tissue paper. 25 μL of substrate A and B were added into each well. Luminance was measured using a spectrometer (Tecan Infinite® F200) after 10 minutes incubation. IC50 value was extrapolated based the dose-response curves generated from the data.

| Compound | IC50 [nM] |
| --- | --- |
| COc1cccc(-c2cc3c(cc2OC)-c2cc(=O)c(C(=O)O)cn2C(C(C)(C)C)C3)c1 (stereo not shown) [Example 36, 6-(tert-butyl)-10-methoxy-9-(3-methoxyphenyl)-2-oxo-6,7-dihydro-2H-pyrido[2,1-a]isoquinoline-3-carboxylic acid] | 10 |
| COc1cc2c(cc1-c1cnc(NCC3CC3)nc1)CC(C(C)(C)C)n1cc(C(=O)O)c(=O)cc1-2 (stereo not shown) [Example 67, 6-(tert-butyl)-9-(2-(cylcopropylmethylamino)pyrimidin-5-yl)-10-methoxy-2-oxo-6,7-dihydro-2H-pyrido[2,1-a]isoquinoline-3-carboxylic acid] | 0.3 |
| COc1cc2c(cc1-c1nc[nH]n1)CC(C(C)(C)C)n1cc(C(=O)O)c(=O)cc1-2 (stereo not shown) [Example 29, 6-(tert-butyl)-10-methoxy-2-oxo-9-(1H-1,2,4-triazol-3-yl)-6,7-dihydro-2H-pyrido[2,1-a]isoquinoline-3-carboxylic acid] | 12 |
| COc1cc2c(cc1-c1ccc(NC(C)=O)nc1)CC(C(C)(C)C)n1cc(C(=O)O)c(=O)cc1-2 (stereo not shown) [Example 57, 9-(6-acetamidopyridin-3-yl)-6-(tert-butyl)-10-methoxy-2-oxo-6,7-dihydro-2H-pyrido[2,1-a]isoquinoline-3-carboxylic acid] | 1 |
| COc1cc2c(cc1-c1cnc(N3CCOCC3)nc1)CC(C(C)(C)C)n1cc(C(=O)O)c(=O)cc1-2 (stereo not shown) [Example 62, 6-(tert-butyl)-10-methoxy-9-(2-morpholinylpyrimidin-5-yl)-2-oxo-6,7-dihydro-2H-pyrido[2,1-a]isoquinoline-3-carboxylic acid] | 5 |
| COc1cc2c(cc1-c1ccc(N(C)C)nc1)CC(C(C)(C)C)n1cc(C(=O)O)c(=O)cc1-2 (stereo not shown) [Example 43, 6-(tert-butyl)-9-(6-(dimethylamino)pyridin-3-yl)-10-methoxy-2-oxo-6,7-dihydro-2H-pyrido[2,1-a]isoquinoline-3-carboxylic acid] | 1 |
| COc1ccc(-c2cc3c(cc2OC)-c2cc(=O)c(C(=O)O)cn2C(C(C)(C)C)C3)cc1 (stereo not shown) [Example 35, 6-(tert-butyl)-10-methoxy-9-(4-methoxyphenyl)-2-oxo-6,7-dihydro-2H-pyrido[2,1-a]isoquinoline-3-carboxylic acid] | 290 |
| COc1cc2c(cc1-c1cnc(N3CCC(C(=O)O)C3)nc1)CC(C(C)(C)C)n1cc(C(=O)O)c(=O)cc1-2 (stereo not shown) [Example 77, 6-(tert-butyl)-9-(2-(3-carboxypyrrolidin-1-yl)pyrimidin-5-yl)-10-methoxy-2-oxo-6,7-dihydro-2H-pyrido[2,1-a]isoquinoline-3-carboxylic acid] | 150 |
| COc1cc2c(cc1-c1ccc(N3CCNCC3)nc1)CC(C(C)(C)C)n1cc(C(=O)O)c(=O)cc1-2 (stereo not shown) [Example 45, 6-(tert-butyl)-10-methoxy-2-oxo-9-(6-(piperazin-1-yl)pyridin-3-yl)-6,7-dihydro-2H-pyrido[2,1-a]isoquinoline-3-carboxylic acid] | 14 |
| COc1cc2c(cc1-c1cnn(CC(F)(F)F)c1)CC(C(C)C)n1cc(C(=O)O)c(=O)cc1-2 (stereo not shown) [Example 2, 6-isopropyl-10-methoxy-2-oxo-9-(1-(2,2,2-trifluoroethyl)-1H-pyrazol-4-yl)-6,7-dihydro-2H-pyrido[2,1-a]isoquinoline-3-carboxylic acid] | 8 |
| COc1cc2c(cc1-c1ccc(NC3CCC3)nc1)CC(C(C)(C)C)n1cc(C(=O)O)c(=O)cc1-2 (stereo not shown) [Example 56, 6-(tert-butyl)-9-(6-(cyclobutylamino)pyridin-3-yl)-10-methoxy-2-oxo-6,7-dihydro-2H-pyrido[2,1-a]isoquinoline-3-carboxylic acid] | 1 |
| COc1cc2c(cc1-c1cnn(CC(C)O)c1)CC(C(C)(C)C)n1cc(C(=O)O)c(=O)cc1-2 (stereo not shown) [Example 12, 6-(tert-butyl)-9-(1-(2-hydroxypropyl)-1H-pyrazol-4-yl)-10-methoxy-2-oxo-6,7-dihydro-2H-pyrido[2,1-a]isoquinoline-3-carboxylic acid] | 2 |
| COc1cc2c(cc1-c1ccc(N3CCN(C(C)=O)CC3)nc1)CC(C(C)(C)C)n1cc(C(=O)O)c(=O)cc1-2 (stereo not shown) [Example 46, 9-(6-(4-acetylpiperazin-1-yl)pyridin-3-yl)-6-(tert-butyl)-10-methoxy-2-oxo-6,7-dihydro-2H-pyrido[2,1-a]isoquinoline-3-carboxylic acid] | 3 |
| COc1cc2c(cc1-c1ccnc(C)c1)CC(C(C)(C)C)n1cc(C(=O)O)c(=O)cc1-2 (stereo not shown) [Example 38, 6-(tert-butyl)-10-methoxy-9-(2-methylpyridin-4-yl)-2-oxo-6,7-dihydro-2H-pyrido[2,1-a]isoquinoline-3-carboxylic acid] | 5 |
| COc1cc2c(cc1-c1cnc(N3CCC3)cc1C)CC(C(C)(C)C)n1cc(C(=O)O)c(=O)cc1-2 (stereo not shown) [Example 53, 9-(6-(azetidin-1-yl)-4-methylpyridin-3-yl)-6-(tert-butyl)-10-methoxy-2-oxo-6,7-dihydro-2H-pyrido[2,1-a]isoquinoline-3-carboxylic acid] | 1400 |
| COc1cc2c(cc1-c1cn[nH]c1)CC(C(C)(C)C)n1cc(C(=O)O)c(=O)cc1-2 (stereo not shown) [Example 8, 6-(tert-butyl)-10-methoxy-2-oxo-9-(1H-pyrazol-4-yl)-6,7-dihydro-2H-pyrido[2,1-a]isoquinoline-3-carboxylic acid] | 9 |
| COc1cc2c(cc1-c1cnc(N3CCCC3)nc1)CC(C(C)(C)C)n1cc(C(=O)O)c(=O)cc1-2 (stereo not shown) [Example 59, 6-(tert-butyl)-10-methoxy-2-oxo-9-(2-(pyrrolidin-1-yl)pyrimidin-5-yl)-6,7-dihydro-2H-pyrido[2,1-a]isoquinoline-3-carboxylic acid] | 10 |
| COc1cc2c(cc1-c1cnn(CCCO)c1)CC(C(C)(C)C)n1cc(C(=O)O)c(=O)cc1-2 (stereo not shown) [Example 9, 6-(tert-butyl)-9-(1-(3-hydroxypropyl)-1H-pyrazol-4-yl)-10-methoxy-2-oxo-6,7-dihydro-2H-pyrido[2,1-a]isoquinoline-3-carboxylic acid] | 290 |
| COc1ncc(-c2cc3c(cc2OC)-c2cc(=O)c(C(=O)O)cn2C(C(C)(C)C)C3)cn1 (stereo not shown) [Example 66, 6-(tert-butyl)-10-methoxy-9-(2-methoxypyrimidin-5-yl)-2-oxo-6,7-dihydro-2H-pyrido[2,1-a]isoquinoline-3-carboxylic acid] | 0.8 |
| COCCOc1ccc(-c2cc3c(cc2OC)-c2cc(=O)c(C(=O)O)cn2C(C(C)(C)C)C3)cn1 (stereo not shown) [Example 42, 6-(tert-butyl)-10-methoxy-9-(6-(2-methoxyethoxy)pyridin-3-yl)-2-oxo-6,7-dihydro-2H-pyrido[2,1-a]isoquinoline-3-carboxylic acid] | 2 |
| COc1cc2c(cc1-c1cnc(C)nc1)CC(C(C)(C)C)n1cc(C(=O)O)c(=O)cc1-2 (stereo not shown) [Example 58, 6-(tert-butyl)-10-methoxy-9-(2-methylpyrimidin-5-yl)-2-oxo-6,7-dihydro-2H-pyrido[2,1-a]isoquinoline-3-carboxylic acid] | 4 |
| COc1cc2c(cc1-c1ccc(C(F)(F)F)nc1)CC(C(C)(C)C)n1cc(C(=O)O)c(=O)cc1-2 (stereo not shown) [Example 41, 6-(tert-butyl)-10-methoxy-2-oxo-9-(6-trifluoromethylpyridin-3-yl)-6,7-dihydro-2H-pyrido[2,1-a]isoquinoline-3-carboxylic acid] | 2 |
| COc1cc2c(cc1-c1cnn(C(C)C(=O)O)c1)CC(C(C)(C)C)n1cc(C(=O)O)c(=O)cc1-2 (stereo not shown) [Example 26, 6-(tert-butyl)-9-(1-(1-carboxyethyl)-1H-pyrazol-4-yl)-10-methoxy-2-oxo-6,7-dihydro-2H-pyrido[2,1-a]isoquinoline-3-carboxylic acid] | 8 |
| COc1cc2c(cc1-c1cnc(N)nc1)CC(C(C)(C)C)n1cc(C(=O)O)c(=O)cc1-2 (stereo not shown) [Example 65, 9-(2-aminopyrimidin-5-yl)-6-(tert-butyl)-10-methoxy-2-oxo-6,7-dihydro-2H-pyrido[2,1-a]isoquinoline-3-carboxylic acid] | 80 |
| COc1cc2c(cc1-c1ccnn1C)CC(C(C)(C)C)n1cc(C(=O)O)c(=O)cc1-2 (stereo not shown) [Example 13, 6-(tert-butyl)-10-methoxy-9-(1-methyl-1H-pyrazol-5-yl)-2-oxo-6,7-dihydro-2H-pyrido[2,1-a]isoquinoline-3-carboxylic acid] | 18 |
| COc1cc2c(cc1-c1cn[nH]c1)CC(C(C)C)n1cc(C(=O)O)c(=O)cc1-2 (stereo not shown) [Example 1, 6-isopropyl-10-methoxy-2-oxo-9-(1H-pyrazol-4-yl)-6,7-dihydro-2H-pyrido[2,1-a]isoquinoline-3-carboxylic acid] | 14 |
| COc1cc2c(cc1-c1ncn(CC(=O)O)n1)CC(C(C)(C)C)n1cc(C(=O)O)c(=O)cc1-2 (stereo not shown) [Example 30, 6-(tert-butyl)-9-(1-(carboxymethyl)-1H-1,2,4-triazol-3-yl)-10-methoxy-2-oxo-6,7-dihydro-2H-pyrido[2,1-a]isoquinoline-3-carboxylic acid] | 13 |
| COc1cc2c(cc1-c1ccc(N3CCN(C)CC3)nc1)CC(C(C)(C)C)n1cc(C(=O)O)c(=O)cc1-2 (stereo not shown) [Example 47, 6-(tert-butyl)-10-methoxy-9-(6-(4-methylpiperazin-1-yl)pyridin-3-yl)-2-oxo-6,7-dihydro-2H-pyrido[2,1-a]isoquinoline-3-carboxylic acid] | 2 |
